Consider 8 compounds from ChEMBL document CHEMBL1123003, “Synthesis and interaction of 5-(substituted-phenyl)-3-methyl-6,7-dihydropyrazolo[4,3-e] [1,4]diazepin-8(7H)-ones with benzodiazepine receptors in rat cerebral cortex” (J Med Chem, 1985).

Usually IC50 stands for the concentration needed to halve the response being measured. Low readings indicate greater potency in that assay, high ones weaker potency in that assay.

The experiment addresses GABA-A receptor; anion channel. Put plainly: Displacement of [3H]flunitrazepam from GABA-A benzodiazepine receptor in synaptic membranes of rat cerebral cortex. It is filed as cell membranes.

With `Cc1n[nH]c2c1N=C(c1ccccc1)CNC2=O`, the IC50 worked out at 4.4 µM.
For `COc1ccc(C2=Nc3c(C)n[nH]c3C(=O)NC2)cc1`, the IC50 turned out to be 46.5 µM.
`Cc1n[nH]c2c1N=C(c1ccc(Cl)cc1)CNC2=O` returned an IC50 of 10 µM.
For `Cc1n[nH]c2c1N=C(c1ccc(-c3ccccc3)cc1)CNC2=O` the value was greater than 100 µM; for `Cc1n[nH]c2c1N=C(c1ccc([N+](=O)[O-])cc1)CNC2=O`, 30.5 µM.
`Cc1n[nH]c2c1N=C(c1ccc(Br)cc1)CNC2=O` yielded an IC50 of 22.3 µM.
`CNC1=Nc2ccc(Cl)cc2C(c2ccccc2)=[N+]([O-])C1` [CHLORDIAZEPOXIDE] displayed an IC50 of 0.91 µM.
For `CCn1nc(C)c2c1C(c1ccccc1)=NCC(=O)N2` [RIPAZEPAM] the value was 0.67 µM.
